Measured values reported in US20120252834A1 (priority 2009, published 2012).
Like-named read-outs stand apart in the source and are kept apart here.

What was measured:
[1] = system: SEB-induced toxic shock in C3H/HeJ mice; details: mouse, in vivo
[2] = system: peripheral blood cells and splenocytes from mice treated with SEB; test: Cellular apoptosis by JC-1 fluorescence (flow cytometry) in SEB-treated mice; type: in vivo, mouse; details: rapamycin 0.16 mg/kg i.n. at 17 h, cells taken 18 h after SEB
Experimental: Detection of cellular apoptosis by measuring fluorescence of mitochondrial J-aggregates. The loss of mitochondrial permeability, indicative of cellular apoptosis was detected by a fluorescent cationic dye, JC-1 (51). Briefly, peripheral blood or spleens were removed at 18 h from mice treated with SEB, SEB plus 0.16 mg/kg of intranasal rapamycin at 17 h after SEB exposure. Negative controls consisted of mice treated with DMSO at 17 h after saline. Red blood cells from peripheral blood and spleens were lyzed with FACS lyzing buffer (Becton Dickinson, Mountainview, Calif.) prior to staining with JC-1 dye according to manufacturer's instructions (Immunochemistry Technology, Bloomington, Minn.). Flow cytometer (Becton Dickinson) was used to measure cell fluorescence at 530 nm, which represents apoptotic cells.

[3] = system: SEA-, TSST-1-, SPEA-, and SPEC-stimulated human peripheral blood mononuclear cells; type: cell-based; details: rapamycin 1 μg/mL
[4] = system: serum MCP-1, IL-6 and IL-2 in SEB-treated mice; details: mouse, in vivo
[5] = Determination of rapamycin in murine whole blood (HPLC, ion-trap MS); type: in vivo; details: mouse; for concentration at 1 h / concentration at 97 h: C3H/HeJ, whole blood; for concentration at 1 h: read-out: blood level of rapamycin
Experimental: Determination of rapamycin in murine whole blood. Blood was collected from rapamycin-treated mice (n=5) by retro-orbital bleeding into EDTA tubes 1 h after intranasal administration of rapamycin. Blood was centrifuged at 12000×g for 3 min to remove cells. Supernatants was removed and stored at −70° C. until analysis. Analysis of rapamycin was performed as previously described (23) using an Agilent Technologies series 1100 Capillary HPLC instrument and ion-trap mass spectrometer.

[6] = system: SEB-induced proliferation of T cells in PBMC; test: cells; type: cell-based, human
PBMC = test: Trypan Blue exclusion test on PBMC; details: data not shown
[7] = system: lung MCP-1, IL-2 and IL-6 in SEB-exposed mice; details: mouse, in vivo
[8] = system: human PBMC stimulated with SEB; test: cells; type: cell-based; details: for inhibition at 6.9 µg/mL: Homo sapiens, PBMC, 16 h
[9] = cited from earlier work

Which lethality [1] does the source give for `C[C@@H]1C[C@H]2[C@@H]3CCC4=CC(=O)C=C[C@]4(C)[C@@]3(F)[C@@H](O)C[C@]2(C)[C@@]1(O)C(=O)CO` [dexamethasone] here?
The lethality was 90%.

What does the source list for `CO[C@H]1C[C@@H]2CC[C@@H](C)[C@@](O)(O2)C(=O)C(=O)N2CCCC[C@H]2C(=O)O[C@H]([C@H](C)C[C@@H]2CC[C@@H](O)[C@H](OC)C2)CC(=O)[C@H](C)/C=C(\C)[C@@H](O)[C@@H](OC)C(=O)[C@H](C)C[C@H](C)/C=C/C=C/C=C/1C` [rapamycin]?
decrease in number of apoptotic cells ([2]; mouse peripheral blood): 66%; decrease in number of apoptotic cells ([2]; mouse spleen): 74%; effective in protecting mice from SEB-mediated shock [1]: 100%; protected [1]: 100%; protection [1]: 20%; weight gain [1]: 8-17%; reduction of superantigen-induced T cell proliferation ([3]; SEA-stimulated): 74%; reduction of superantigen-induced T cell proliferation ([3]; SPEA-stimulated): 68%; reduction of superantigen-induced T cell proliferation ([3]; SPEC-stimulated): 69%; reduction of superantigen-induced T cell proliferation ([3]; TSST-1-stimulated): 42%; reduction of peak serum IL-6 [4]: 80%; reduction of peak serum MCP-1 [4]: 90%; concentration at 1 h ([5]; other: intranasal followed by intraperitoneal, 1 h after multiple dosing (2 i.n. doses plus 1 i.p. dose)): 692 ± 406 ng/mL; concentration at 97 h ([5]; other: intranasal followed by intraperitoneal, at 97 h, lower doses (0.03 mg/kg i.n. at 2 and 5 h, 0.08 mg/kg i.p. at 24, 48, 72 and 96 h)): 38 ± 15 ng/mL; concentration at 97 h ([5]; other: intranasal followed by intraperitoneal, at 97 h after multiple dosing (i.n. 0.7 mg/kg at 2 and 5 h, i.p. 1.6 mg/kg at 30, 48, 72 and 96 h)): 622 ± 282 ng/mL; concentration at 1 h ([5]; other: intranasal, 0.7 mg/kg, 1 h after an i.n. dose of 0.7 mg/kg): 492 ± 204 ng/mL; blood level of rapamycin ([5]; 1 h after an i.n. dose of 0.7 mg/kg, 0.7 mg/kg): 658 ± 408 ng/mL; reduction of T cell proliferation [6]: 56%; inhibition at 6.9 µg/mL ([6]; Homo sapiens, T-cell, 48 h, read-out: inhibition of SEB-induced T cell proliferation (maximal)): 94%; cytotoxic effect (Trypan Blue exclusion) (PBMC): not due to cytotoxic effect; attenuation of lung IL-2 [7]: 80%; attenuation of lung IL-6 [7]: 65%; attenuation of lung MCP-1 [7]: 56%; suppression of IFNγ [8]: 36%; suppression of IL-2 [8]: 34%; inhibition at 6.9 µg/mL ([8]; read-out: inhibition of IL-1β production): 97%; inhibition at 6.9 µg/mL ([8]; read-out: inhibition of IL-2 production): 100%; inhibition at 6.9 µg/mL ([8]; read-out: inhibition of IL-6 production): 67%; inhibition at 6.9 µg/mL ([8]; read-out: inhibition of TNFα production): 77%; blood concentrations of rapamycin ([9]; healthy subjects, 1 h after 15 mg of rapamycin): 78.2 ± 18 ng/mL; blood levels of rapamycin ([9]; renal transplantation, 5 mg/day, at 1.8 h): 37.4 ± 21 ng/mL
